Like-named read-outs stand apart in the source and are kept apart here.
Conditions: 12-membered ring

Row | Structure (SMILES) | ring closure, isolated yield (from COC(=O)Nc1ccc(-c2cn(COCC[Si](C)(C)C)c([C@H](CN(CCC(=O)O)C(=O)OC(C)(C)C)NC(=O)OCc3ccccc3)n2)c(N)c1, amide bond, BOP/DIEA, DCM/DMF, 0.93 mM, 25.0 °C) | ring closure, isolated yield (from C=CCCOc1ccccc1-c1cn(COCC[Si](C)(C)C)c([C@H](CC=C)NC(=O)OC(C)(C)C)n1, rcm bond, Grubbs II (1 eq)/pTsOH, DCM, 1.02 mM, 40.0 °C)
1 | COC(=O)Nc1ccc2c(c1)NC(=O)CCN(C(=O)OC(C)(C)C)C[C@H](NC(=O)OCc1ccccc1)c1nc-2cn1COCC[Si](C)(C)C | 87% | 
2 | CC(C)(C)OC(=O)N[C@H]1CC=CCCOc2ccccc2-c2cn(COCC[Si](C)(C)C)c1n2 |  | 20%

From patent US9802939
